Laboratory results taken from article PMC9232501, “Results of the phase I CCTG IND.231 trial of CX-5461 in patients with advanced solid tumors enriched for DNA-repair deficiencies” (Nature Communications, 2022).
“And” between values parts separate entries of the source, which are not always exact repeats. Equal entries are not always repeated.

Assay: Plasma pharmacokinetics of CX-5461 (HPLC-MS/MS, non-compartmental)
Format: in vivo, human
Set-up: Day 1 CX-5461 plasma concentration: unit not given here
Settings: for Day 1 Cmax / Day 8 or 15 Cmax / Day 1 AUC / Day 8 or 15 AUC: one patient per datapoint; for Day 1 Cmax / Day 8 or 15 Cmax: in ng/mL; for Day 1 AUC / Day 8 or 15 AUC: in ng·h/mL (unit assumed)
Method: PK was assessed on all patients in the escalation phase. Venous blood samples were collected on treatment days 1, 8, and 15 (where applicable), and plasma CX-5461 was analyzed with HPLC-MS/MS (schedule details in Supplementary Table 3). PK parameters were calculated with non-compartmental methods. […] The protocol was amended to allow submission of a ctDNA sample and in a further amendment, a mandatory skin biopsy (pre-treatment and cycle 1 day 15) to study phototoxic effects. Fresh tumor biopsies were optional.
Supplementary Table 3. Schedule for collection of CX5461 pharmacokinetics
During infusion at 30 minutes
Immediately post infusion then:
C1D1 30 minutes post infusion
C1D2 24 hours post infusion
C1D3 48 hours post infusion
C1D4 72 hours post infusion
Immediately post infusion then
C1D15 30 minutes post infusion
C1D16 24 hours post infusion
In addition to the specific time points listed above, additional samples were to be collected from […]

Cc1cnc(CNC(=O)c2c(=O)c3ccc(N4CCCN(C)CC4)nc3n3c2sc2ccccc23)cn1 [CX-5461]
Day 1 CX-5461 plasma concentration (50 mg/m2, Time 0, individual patients): 623 | Day 1 CX-5461 plasma concentration (50 mg/m2, Time 24, individual patients): 40.3 and 34 | Day 1 CX-5461 plasma concentration (50 mg/m2, Time 48, individual patients): 40 and 22.9 | Day 1 CX-5461 plasma concentration (50 mg/m2, Time 72, individual patients): 16.6 and 12.9 | Day 1 CX-5461 plasma concentration (100 mg/m2, Time 24, individual patients): 53.2 and 76.4 and 34.5 and 70.1 | Day 1 CX-5461 plasma concentration (100 mg/m2, Time 48, individual patients): 49 and 52 and 48 | Day 1 CX-5461 plasma concentration (100 mg/m2, Time 72, individual patients): 28 and 33.5 and 33.8 | Day 1 CX-5461 plasma concentration (150 mg/m2, Time 0, individual patients): 415 and 821 | Day 1 CX-5461 plasma concentration (150 mg/m2, Time 24, individual patients): 176 and 102 and 165 and 350 | Day 1 CX-5461 plasma concentration (150 mg/m2, Time 48, individual patients): 135 and 49 and 101 and 265 | Day 1 CX-5461 plasma concentration (150 mg/m2, Time 72, individual patients): 90.2 and 31.2 and 92.6 and 180 | Day 1 CX-5461 plasma concentration (200 mg/m2, Time 0, individual patients): 218 and 3210 and 1850 and 745 | Day 1 CX-5461 plasma concentration (200 mg/m2, Time 24, individual patients): 102 and 78.2 and 124 | Day 1 CX-5461 plasma concentration (200 mg/m2, Time 48, individual patients): 55 and 145 and 69.8 and 79.1 | Day 1 CX-5461 plasma concentration (200 mg/m2, Time 72, individual patients): 52.5 and 43.9 and 51.7 | Day 1 CX-5461 plasma concentration (250 mg/m2, Time 24, individual patients): 125 and 233 | Day 1 CX-5461 plasma concentration (250 mg/m2, Time 48, individual patients): 101 and 169 | Day 1 CX-5461 plasma concentration (250 mg/m2, Time 72, individual patients): 68 and 111 | Day 1 CX-5461 plasma concentration (325 mg/m2, Time 24, individual patients): 160 and 193 | Day 1 CX-5461 plasma concentration (325 mg/m2, Time 48, individual patients): 132 and 97 | Day 1 CX-5461 plasma concentration (325 mg/m2, Time 72, individual patients): 121 and 69.4 | Day 1 CX-5461 plasma concentration (475 mg/m2, Time 24, individual patients): 222 and 204 | Day 1 CX-5461 plasma concentration (475 mg/m2, Time 48, individual patients): 199 and 146 | Day 1 CX-5461 plasma concentration (475 mg/m2, Time 72, individual patients): 203 and 132 | Day 1 CX-5461 plasma concentration (650 mg/m2, Time 24, individual patients): 255 and 361 and 196 and 161 and 173 and 233 | Day 1 CX-5461 plasma concentration (650 mg/m2, Time 48, individual patients): 234 and 439 and 165 and 107 and 154 | Day 1 CX-5461 plasma concentration (650 mg/m2, Time 72, individual patients): 322 and 261 and 170 and 87.5 and 137 and 154 | Day 1 CX-5461 plasma concentration (B: 325 mg/m2, Time 24, individual patients): 254 and 120 and 133 and 175 | Day 1 CX-5461 plasma concentration (B: 325 mg/m2, Time 48, individual patients): 156 and 435 and 136 | Day 1 CX-5461 plasma concentration (B: 325 mg/m2, Time 72, individual patients): 93.9 and 199 and 103 | Day 1 CX-5461 plasma concentration (B: 475 mg/m2, Time 24, individual patients): 401 and 324 and 275 and 184 | Day 1 CX-5461 plasma concentration (B: 475 mg/m2, Time 48, individual patients): 288 and 213 and 252 | Day 1 CX-5461 plasma concentration (B: 475 mg/m2, Time 72, individual patients): 187 and 199 and 113 | Day 1 Cmax (Dose level 50 (mg/m2)): 623 and 1070 and 830 and 388 | Day 8 or 15 Cmax (Dose level 50 (mg/m2)): 616 and 1040 and 271 | Day 1 AUC (Dose level 50 (mg/m2)): 4080 and 3310 | Day 8 or 15 AUC (Dose level 50 (mg/m2)): 6520 and 1970 and 4580 | Day 1 Cmax (Dose level 100 (mg/m2)): 1580 and 662 and 799 and 1330 | Day 8 or 15 Cmax (Dose level 100 (mg/m2)): 1030 and 243 | Day 1 AUC (Dose level 100 (mg/m2)): 4870 and 3830 and 5290 | Day 8 or 15 AUC (Dose level 100 (mg/m2)): 7780 and 8830 and 2350 | Day 1 Cmax (Dose level 150 (mg/m2)): 2370 and 1080 and 1010 | Day 8 or 15 Cmax (Dose level 150 (mg/m2)): 1970 and 1090 and 697 | Day 1 AUC (Dose level 150 (mg/m2)): 12000 and 19500 and 11500 and 7650 | Day 8 or 15 AUC (Dose level 150 (mg/m2)): 18700 and 23900 and 12600 | Day 1 Cmax (Dose level 200 (mg/m2)): 265 and 3210 and 805 | Day 8 or 15 Cmax (Dose level 200 (mg/m2)): 1560 and 170 and 2180 and 795 | Day 1 AUC (Dose level 200 (mg/m2)): 5690 and 22300 and 12900 and 8410 | Day 8 or 15 AUC (Dose level 200 (mg/m2)): 9650 and 2530 and 25500 and 14100 | Day 1 Cmax (Dose level 250 (mg/m2)): 867 and 2350 and 1010 | Day 8 or 15 Cmax (Dose level 250 (mg/m2)): 1290 and 368 and 654 | Day 1 AUC (Dose level 250 (mg/m2)): 16300 and 16100 | Day 8 or 15 AUC (Dose level 250 (mg/m2)): 21800 and 18700 | Day 1 Cmax (Dose level 325 (mg/m2)): 938 and 960 | Day 8 or 15 Cmax (Dose level 325 (mg/m2)): 482 and 1190 | Day 1 AUC (Dose level 325 (mg/m2)): 12800 and 11200 | Day 8 or 15 AUC (Dose level 325 (mg/m2)): 15200 | Day 1 Cmax (Dose level 475 (mg/m2)): 1460 and 2510 | Day 8 or 15 Cmax (Dose level 475 (mg/m2)): 1500 and 1940 | Day 1 AUC (Dose level 475 (mg/m2)): 17900 and 17100 | Day 8 or 15 AUC (Dose level 475 (mg/m2)): 7410 and 31300 and 32900 | Day 1 Cmax (Dose level 650 (mg/m2)): 4290 and 1840 and 2280 and 3810 and 3180 | Day 8 or 15 Cmax (Dose level 650 (mg/m2)): 6050 and 2790 and 2540 and 5480 and 3990 | Day 1 AUC (Dose level 650 (mg/m2)): 29600 and 16700 and 21400 | Day 8 or 15 AUC (Dose level 650 (mg/m2)): 48200 and 23200 and 59300 and 44400 and 13900 | Day 1 Cmax (Dose level B: 325 (mg/m2)): 1030 and 1200 and 1520 | Day 8 or 15 Cmax (Dose level B: 325 (mg/m2)): 3590 and 1510 and 1240 | Day 1 AUC (Dose level B: 325 (mg/m2)): 19700 and 20400 and 21500 | Day 8 or 15 AUC (Dose level B: 325 (mg/m2)): 48100 and 7080 and 11700 and 7620 | Day 1 Cmax (Dose level B: 475 (mg/m2)): 2510 and 2620 and 1660 and 982 and 953 | Day 8 or 15 Cmax (Dose level B: 475 (mg/m2)): 1370 and 2630 and 6800 and 1020 | Day 1 AUC (Dose level B: 475 (mg/m2)): 43600 and 26400 and 23500 and 32100 | Day 8 or 15 AUC (Dose level B: 475 (mg/m2)): 18300 and 14200 and 52600 and 11900 and 7800 | concentration at 0.5 h (human, plasma, intravenous, 50 mg/m2, 50 mg/m2, Time 0.5, individual patients, read-out: Day 1 CX-5461 plasma concentration): 155 ng/mL | concentration at 1 h (human, plasma, intravenous, 50 mg/m2, 50 mg/m2, Time 1, individual patients, read-out: Day 1 CX-5461 plasma concentration): 104 ng/mL | concentration at 2 h (human, plasma, intravenous, 50 mg/m2, 50 mg/m2, Time 2, individual patients, read-out: Day 1 CX-5461 plasma concentration): 96.5 ng/mL | concentration at 4 h (human, plasma, intravenous, 50 mg/m2, 50 mg/m2, Time 4, individual patients, read-out: Day 1 CX-5461 plasma concentration): 74.9 ng/mL | concentration at 6 h (human, plasma, intravenous, 50 mg/m2, 50 mg/m2, Time 6, individual patients, read-out: Day 1 CX-5461 plasma concentration): 61.6 ng/mL | concentration at 24 h (human, plasma, intravenous, 50 mg/m2, 50 mg/m2, Time 24, individual patients, read-out: Day 1 CX-5461 plasma concentration): 40 ng/mL
